Columns and labels:
Format in all cases: in vivo
cortisol (CORT) = assay: Neurotransmitter measurement by ELISA: CORT; details: trunk blood
Protocol: (§1) The rats were housed in individual cages with light and temperature control (temperature: 21±2° C.; lights on at 8:00 AM and off at 8:00 PM). Food and water were available ad libitum. All experimental procedures were carried out in strict accordance with the National Institutes of Health guidelines for care and use of experimental animals. After an initial habituation period of 1 week, all animals were given access to bottle containing a sucrose solution in tap water for 1 hour and were tested for the baseline data of the sucrose preference test. According to the baseline data, the animals were divided into 9 groups (n=10-12 animals/each group), that is the control group, the stressed group, the stressed+fluoxetine group, the stressed+Example 1 group, the stressed+ginseng extract group, the stressed+Radix paeoniae Alba extract group, the stressed+Tree Peony Bark extract group, the stressed+Sharpleaf Galangal Fruit extract group, and the stressed+Radix Polygonum multiflorum Preparata extract group. The animals were subjected to 2 to 5 different mild stressors per day for 5 weeks. The mild stressors included water and food deprivation, cage tilt, continuously lighting, cage soiling, stroboscopic lighting, restricted access to food, and tail pinching. Control animals were not subjected to the stress protocol, and the stressed animals were subjected to the mild stressors and given the same amount of water as control group. The animals of the stressed+fluoxetine group were subjected to the mild stressors and treated with fluoxetine capsules. The animals of the stressed+Example 1 group were subjected to the mild stressors and treated with the composition of Example 1. The animals of the stressed+single extract group were subjected to the mild stressors and treated with the single extract.
(§2) The rats were sacrificed and the trunk blood was collected into the collection tubes coated with standard heparin. […] The levels of corticotropin-releasing hormone (CRH), adrenocorticotropic hormone (ACTH) and cortisol (CORT) were detected by ELISA. […]

CRH, ACTH and CORT = assay: Neurotransmitter measurement, overall statement on CRH, ACTH and CORT; details: chronically stressed rats
Protocol: The rats were housed in individual cages with light and temperature control (temperature: 21±2° C.; lights on at 8:00 AM and off at 8:00 PM). Food and water were available ad libitum. All experimental procedures were carried out in strict accordance with the National Institutes of Health guidelines for care and use of experimental animals. After an initial habituation period of 1 week, all animals were given access to bottle containing a sucrose solution in tap water for 1 hour and were tested for the baseline data of the sucrose preference test. According to the baseline data, the animals were divided into 9 groups (n=10-12 animals/each group), that is the control group, the stressed group, the stressed+fluoxetine group, the stressed+Example 1 group, the stressed+ginseng extract group, the stressed+Radix paeoniae Alba extract group, the stressed+Tree Peony Bark extract group, the stressed+Sharpleaf Galangal Fruit extract group, and the stressed+Radix Polygonum multiflorum Preparata extract group. The animals were subjected to 2 to 5 different mild stressors per day for 5 weeks. […]
as §2

[1] = test system: chronically stressed rats; assay: Sucrose preference test in chronically stressed rats
Protocol: as §1
The rats could select between two bottles of liquid freely, one with 0.8% sucrose solution and one with tap water, after 23 h food and water deprivation. To avoid the rats prefer to drink one side of the water, the position of the two bottles were exchanged every half an hour. Tap water consumption and sucrose consumption were measured by weighting the bottles, and the sucrose preference were calculated based on the following formula: […]
The rats were housed in individual cages with light and temperature control (temperature: 21±2° C.; lights on at 8:00 AM and off at 8:00 PM). Food and water were available ad libitum. All experimental procedures were carried out in strict accordance with the National Institutes of Health guidelines for care and use of experimental animals. After an initial habituation period of 1 week, all animals were given access to bottle containing a sucrose solution in tap water for 1 hour and were tested for the baseline data of the sucrose preference test. […]

[2] = test system: corticotropin-releasing hormone (CRH); assay: Neurotransmitter measurement by ELISA: CRH; details: trunk blood
Protocol: as §1, §2

[3] = test system: adrenocorticotropic hormone (ACTH); assay: Neurotransmitter measurement by ELISA: ACTH; details: trunk blood
Protocol: as §1, §2

[4] = Comparative study (Comparative Examples 1-7), chronically stressed rats
[5] = Experimental Example 1, chronically stressed rats
[6] = Experimental Example 2, chronically stressed rats

Compound `CNCCC(Oc1ccc(C(F)(F)F)cc1)c1ccccc1` (centres unmarked) [fluoxetine] has a CORT (cortisol (CORT); [4]) of 52.46 ± 6.05 ng/mL, a CORT (cortisol (CORT); [5]) of 52.09 ± 5.95 ng/mL and a CORT (cortisol (CORT); [6]) of 52.09 ± 5.95 ng/mL. The “Effect on the abnormal levels of CRH, ACTH and CORT caused by chronic stress (in words)” value (CRH, ACTH and CORT) was “improve the abnormal levels of CRH, ACTH and CORT”, the “Sucrose Preference” value ([1]; Comparative study (Comparative Example 1-7), mild stressors for 5 weeks, 0.8% sucrose vs tap water) was 0.7502 ± 0.0471 and the “Sucrose Preferenc” value ([1]; Experimental Example 1, mild stressors for 5 weeks, 0.8% sucrose vs tap water) was 0.7431 ± 0.0565. The “Sucrose Preference” value ([1]; Experimental Example 2, mild stressors for 5 weeks, 0.8% sucrose vs tap water) was 0.7431 ± 0.0565, the “Change of sucrose preference compared with the stressed group (in words)” value ([1]; compared with the stressed group) was “significantly increase the sucrose preference” and the CRH [2, 4] was 5.11 ± 0.29 ng/mL. For the same compound, the CRH [2, 5] was 5.13 ± 0.25 ng/mL, the CRH [2, 6] was 5.13 ± 0.25 ng/mL and the ACTH [3, 4] was 32.73 ± 2.66 pg/mL. It also gave an ACTH [3, 5] of 33.83 ± 2.26 pg/mL and an ACTH [3, 6] of 33.83 ± 2.26 pg/mL.

Reference: patent US10744173B2, “Traditional Chinese medicine compositions for alleviating stress” (Infinitus (China) Company Ltd., priority 2017, dated 2020)
